What all share (format): biochemical
In experiment [1] the target is T1, Human DNA polymerase ε (Homo sapiens, UniProt Q07864).
T1 construct: Human pols δ and ε were purified by the nuclear fractionation of human peripheral blood cancer cells (Molt-4); endogenous in cells; host or cells: Molt-4
Put plainly: DNA polymerase assay, human pol ε. An excerpt: (§1) Pol α was purified from calf thymus by immuno-affinity column chromatography as described by Tamai et al.. Recombinant rat pol β was purified from E. coli JMpβ5 as described by Date et al.. The human pol γ catalytic gene was cloned into pFastBac. Histidine-tagged enzyme was expressed using the BAC-TO-BAC HT Baculovirus Expression System according to the supplier's manual (LIFE TECHNOLOGIES, MD, USA) and purified using ProBoundresin (Invitrogen Japan, Tokyo, Japan). Human pols δ and ε were purified by the nuclear fractionation of human peripheral blood cancer cells (Molt-4) using the second subunit of pols δ and ε-conjugated affinity column chromatography, respectively. Recombinant human pols η and ι tagged with His6 at their C-terminal were expressed in SF9 insect cells using the baculovirus expression system, and were purified as described previously. A truncated form of pol κ (i.e., hDINB1DC) with 6 x His-tags attached at the C-terminal was overproduced using the BAC-to-BAC Baculovirus Expression System kit (GIBCO BRL, MD, USA) and purified as described previously. […]
(§2) For pols, poly(dA)/oligo(dT)12-18 (A/T = 2/1) and dTTP were used as the DNA template-primer and nucleotide (i.e., dNTP) substrate, respectively. […] Activity without the inhibitor was considered 100%, and the remaining activity at each concentration of the inhibitor was determined relative to this value. […]

Experiment [2] addresses Cherry salmon DNA polymerase δ (Oncorhynchus masou, UniProt Z9UCE0HTX2). Put plainly: DNA polymerase assay, fish pol δ.
Experiment [3] has as its target T2, Taq DNA polymerase (Thermus aquaticus, UniProt P19821).
T2 construct: purchased Takara (Kyoto, Japan)
In words: DNA polymerase assay, Taq pol. Particulars: incubated at 74 °C.
Source text: as §1, §2

Experiment [4] concerns the target T3, Human DNA polymerase δ (Homo sapiens, UniProt P28340).
T3 construct: Human pols δ and ε were purified by the nuclear fractionation of human peripheral blood cancer cells (Molt-4); endogenous in cells; host or cells: Molt-4
T3 sequence (P28340 1-1107): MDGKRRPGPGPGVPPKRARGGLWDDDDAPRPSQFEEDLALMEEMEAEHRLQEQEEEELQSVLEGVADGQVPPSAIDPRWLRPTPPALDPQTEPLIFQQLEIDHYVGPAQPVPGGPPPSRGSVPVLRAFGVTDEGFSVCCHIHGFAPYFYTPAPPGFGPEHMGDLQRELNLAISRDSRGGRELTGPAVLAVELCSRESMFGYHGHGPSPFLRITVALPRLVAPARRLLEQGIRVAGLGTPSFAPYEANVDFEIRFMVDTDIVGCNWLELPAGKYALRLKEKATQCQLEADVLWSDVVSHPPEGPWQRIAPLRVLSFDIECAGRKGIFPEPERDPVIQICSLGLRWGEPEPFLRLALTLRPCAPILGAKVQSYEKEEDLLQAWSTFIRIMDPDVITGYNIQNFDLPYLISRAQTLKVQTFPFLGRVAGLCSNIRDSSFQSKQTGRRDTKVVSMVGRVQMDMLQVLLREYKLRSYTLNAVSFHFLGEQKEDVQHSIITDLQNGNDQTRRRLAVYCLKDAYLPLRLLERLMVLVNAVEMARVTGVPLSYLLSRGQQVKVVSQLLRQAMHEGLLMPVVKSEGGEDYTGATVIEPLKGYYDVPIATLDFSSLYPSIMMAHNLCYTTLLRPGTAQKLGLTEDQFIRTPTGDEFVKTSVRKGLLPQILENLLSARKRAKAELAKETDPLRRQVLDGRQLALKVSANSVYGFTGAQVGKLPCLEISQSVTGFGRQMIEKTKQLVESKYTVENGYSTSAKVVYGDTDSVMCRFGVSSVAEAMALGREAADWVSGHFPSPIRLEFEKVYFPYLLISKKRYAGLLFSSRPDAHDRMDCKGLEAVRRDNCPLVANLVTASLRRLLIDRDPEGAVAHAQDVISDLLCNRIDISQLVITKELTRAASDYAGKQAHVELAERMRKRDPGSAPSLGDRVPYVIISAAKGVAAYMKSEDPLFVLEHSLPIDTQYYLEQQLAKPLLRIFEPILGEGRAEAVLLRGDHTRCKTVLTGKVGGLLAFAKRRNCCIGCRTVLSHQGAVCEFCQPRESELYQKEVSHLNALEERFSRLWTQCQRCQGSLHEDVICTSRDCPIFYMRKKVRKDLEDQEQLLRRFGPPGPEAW
Put plainly: DNA polymerase assay, human pol δ.
Source text: as §1, §2

Where only a bound is given, the exact number is not on record here.

A word on the IC50: it is the concentration that inhibits the measured activity by half.

T1 sequence (Q07864 whole entry): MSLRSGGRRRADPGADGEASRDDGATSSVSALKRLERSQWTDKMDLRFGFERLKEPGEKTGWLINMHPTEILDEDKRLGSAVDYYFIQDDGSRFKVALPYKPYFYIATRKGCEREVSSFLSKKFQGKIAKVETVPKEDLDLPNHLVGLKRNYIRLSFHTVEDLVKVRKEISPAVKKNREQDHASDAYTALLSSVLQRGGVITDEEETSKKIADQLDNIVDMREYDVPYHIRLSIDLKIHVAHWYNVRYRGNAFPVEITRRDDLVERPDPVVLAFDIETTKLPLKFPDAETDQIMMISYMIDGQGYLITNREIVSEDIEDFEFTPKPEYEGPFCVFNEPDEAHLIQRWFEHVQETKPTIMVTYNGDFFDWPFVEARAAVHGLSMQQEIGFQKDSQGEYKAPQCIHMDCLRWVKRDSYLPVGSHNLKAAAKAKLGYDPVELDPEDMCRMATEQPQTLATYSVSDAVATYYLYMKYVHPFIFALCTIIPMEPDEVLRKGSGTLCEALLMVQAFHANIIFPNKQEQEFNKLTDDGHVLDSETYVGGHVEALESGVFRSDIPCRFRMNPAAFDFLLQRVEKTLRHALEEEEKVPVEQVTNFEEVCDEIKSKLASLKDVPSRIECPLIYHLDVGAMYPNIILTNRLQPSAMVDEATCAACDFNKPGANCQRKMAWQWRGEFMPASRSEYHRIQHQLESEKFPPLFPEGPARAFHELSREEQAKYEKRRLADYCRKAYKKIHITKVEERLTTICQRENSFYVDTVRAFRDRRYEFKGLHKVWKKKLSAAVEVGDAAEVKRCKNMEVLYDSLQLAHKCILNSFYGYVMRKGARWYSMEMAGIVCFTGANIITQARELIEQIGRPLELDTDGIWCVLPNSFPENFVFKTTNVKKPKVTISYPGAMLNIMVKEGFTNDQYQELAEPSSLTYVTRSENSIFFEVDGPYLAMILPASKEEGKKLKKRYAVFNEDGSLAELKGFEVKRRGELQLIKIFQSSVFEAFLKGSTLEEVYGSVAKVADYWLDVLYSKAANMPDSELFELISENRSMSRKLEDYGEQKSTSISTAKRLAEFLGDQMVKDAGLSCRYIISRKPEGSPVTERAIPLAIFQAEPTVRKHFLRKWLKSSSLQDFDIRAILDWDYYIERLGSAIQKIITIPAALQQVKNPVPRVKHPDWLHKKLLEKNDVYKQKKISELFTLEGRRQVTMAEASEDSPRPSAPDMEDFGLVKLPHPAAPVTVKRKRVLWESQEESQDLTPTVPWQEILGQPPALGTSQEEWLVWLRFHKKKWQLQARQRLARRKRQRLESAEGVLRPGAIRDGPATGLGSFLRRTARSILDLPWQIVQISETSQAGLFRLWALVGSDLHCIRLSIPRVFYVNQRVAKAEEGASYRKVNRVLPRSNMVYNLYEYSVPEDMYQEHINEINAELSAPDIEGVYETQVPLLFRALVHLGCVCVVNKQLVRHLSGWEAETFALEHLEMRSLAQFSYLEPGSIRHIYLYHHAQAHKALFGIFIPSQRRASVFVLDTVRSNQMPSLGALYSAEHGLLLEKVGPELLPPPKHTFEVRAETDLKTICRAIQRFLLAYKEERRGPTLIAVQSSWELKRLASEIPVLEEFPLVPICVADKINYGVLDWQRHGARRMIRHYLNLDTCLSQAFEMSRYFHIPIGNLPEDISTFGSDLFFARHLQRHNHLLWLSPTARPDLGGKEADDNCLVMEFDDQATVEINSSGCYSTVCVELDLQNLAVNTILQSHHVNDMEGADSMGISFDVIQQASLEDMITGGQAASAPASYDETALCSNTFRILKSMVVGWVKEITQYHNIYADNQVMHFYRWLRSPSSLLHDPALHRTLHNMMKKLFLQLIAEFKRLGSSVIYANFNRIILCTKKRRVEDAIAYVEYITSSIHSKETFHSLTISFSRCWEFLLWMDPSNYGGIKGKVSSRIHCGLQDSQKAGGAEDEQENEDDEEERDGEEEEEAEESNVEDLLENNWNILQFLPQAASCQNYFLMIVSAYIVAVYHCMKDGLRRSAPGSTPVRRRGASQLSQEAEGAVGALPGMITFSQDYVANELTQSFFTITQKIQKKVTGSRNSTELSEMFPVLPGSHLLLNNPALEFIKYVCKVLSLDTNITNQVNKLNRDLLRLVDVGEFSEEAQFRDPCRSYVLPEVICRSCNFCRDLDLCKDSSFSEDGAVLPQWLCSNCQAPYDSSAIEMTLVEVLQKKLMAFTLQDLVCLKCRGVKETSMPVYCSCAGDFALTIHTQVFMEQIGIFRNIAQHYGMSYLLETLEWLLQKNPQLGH
T2 sequence (P19821 whole entry): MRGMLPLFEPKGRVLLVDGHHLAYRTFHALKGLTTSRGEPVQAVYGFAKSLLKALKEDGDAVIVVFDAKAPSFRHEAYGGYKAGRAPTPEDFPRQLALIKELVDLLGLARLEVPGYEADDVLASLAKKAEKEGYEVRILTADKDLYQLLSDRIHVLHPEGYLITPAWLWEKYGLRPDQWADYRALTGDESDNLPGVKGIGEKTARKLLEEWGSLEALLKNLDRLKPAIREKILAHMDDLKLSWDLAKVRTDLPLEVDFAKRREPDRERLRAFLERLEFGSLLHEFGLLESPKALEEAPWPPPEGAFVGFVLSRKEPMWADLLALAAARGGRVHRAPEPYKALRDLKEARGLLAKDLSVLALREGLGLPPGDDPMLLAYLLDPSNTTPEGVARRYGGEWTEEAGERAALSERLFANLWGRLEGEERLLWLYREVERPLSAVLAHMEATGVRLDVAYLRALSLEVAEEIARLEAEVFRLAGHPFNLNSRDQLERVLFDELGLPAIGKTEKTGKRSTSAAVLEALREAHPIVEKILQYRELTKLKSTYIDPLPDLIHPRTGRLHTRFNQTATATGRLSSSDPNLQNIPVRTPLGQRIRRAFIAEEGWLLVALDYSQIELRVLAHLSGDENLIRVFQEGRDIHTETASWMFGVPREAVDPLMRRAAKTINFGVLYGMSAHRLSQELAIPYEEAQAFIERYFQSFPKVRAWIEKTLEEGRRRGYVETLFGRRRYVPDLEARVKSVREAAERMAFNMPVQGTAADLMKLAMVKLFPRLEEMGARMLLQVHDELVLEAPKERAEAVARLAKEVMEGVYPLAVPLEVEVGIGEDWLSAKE
Cherry salmon DNA polymerase δ, sequence (Z9UCE0HTX2 1-856): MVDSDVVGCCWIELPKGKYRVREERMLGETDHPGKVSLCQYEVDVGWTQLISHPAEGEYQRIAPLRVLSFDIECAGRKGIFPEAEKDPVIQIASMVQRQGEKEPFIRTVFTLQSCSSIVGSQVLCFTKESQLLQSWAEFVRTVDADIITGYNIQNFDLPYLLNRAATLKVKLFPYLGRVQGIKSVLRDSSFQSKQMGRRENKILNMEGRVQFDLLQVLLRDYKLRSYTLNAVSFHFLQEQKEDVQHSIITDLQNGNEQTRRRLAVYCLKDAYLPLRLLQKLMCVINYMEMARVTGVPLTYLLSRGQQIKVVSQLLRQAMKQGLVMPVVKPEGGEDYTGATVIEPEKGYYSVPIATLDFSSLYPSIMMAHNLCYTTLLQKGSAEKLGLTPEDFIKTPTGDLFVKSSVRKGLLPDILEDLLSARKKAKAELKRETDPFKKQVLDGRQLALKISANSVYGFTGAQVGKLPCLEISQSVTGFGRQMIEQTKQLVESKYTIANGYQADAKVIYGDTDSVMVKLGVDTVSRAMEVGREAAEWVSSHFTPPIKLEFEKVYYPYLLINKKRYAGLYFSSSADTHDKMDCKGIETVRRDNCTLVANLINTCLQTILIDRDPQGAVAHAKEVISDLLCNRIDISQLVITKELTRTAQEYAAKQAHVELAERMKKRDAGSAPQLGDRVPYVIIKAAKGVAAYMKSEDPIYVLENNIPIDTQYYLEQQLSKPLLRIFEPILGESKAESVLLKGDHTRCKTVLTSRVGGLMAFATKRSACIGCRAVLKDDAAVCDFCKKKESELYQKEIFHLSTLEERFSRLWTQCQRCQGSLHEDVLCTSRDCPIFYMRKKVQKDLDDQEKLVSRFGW

In the case of `CC1=CC[C@H]2C(C)(C)CCC[C@]2(C)[C@H]1CCCCCCCCCCCCCCCCC(=O)O` (relative stereo) [compound 11, (1S*,4aS*,8aS*)-17-(1,4,4a,5,6,7,8,8a-octahydro-2,5,5,8a-tetramethylnaphthalen-1-yl)heptadecanoic acid], the IC50 in experiment [1] was 3.22 ± 0.16 µM; in experiment [2], 4.3 ± 0.22 µM; in experiment [3] it was > 200 µM; in experiment [4], 4.89 ± 0.24 µM.

The values are drawn from PMC6253949, “The Inhibitory Action of Kohamaic Acid A Derivatives on Mammalian DNA Polymerase β” (Molecules, 2008).
